Data as given in ChEMBL document CHEMBL5247677, “N-Aryl Indoles as a Novel Class of Potent NaV1.7 Inhibitors” (ACS Med Chem Lett, 2023).
pIC50: −log10 of the molar value. In brackets after ≈: the same amount, converted by molar mass. Activity calls are given as the source filed them. The rule behind the calls is not given here.

Columns and labels:
[1] = biological target: Sodium channel protein type 9 subunit alpha/beta-1/beta-2 (Homo sapiens, UniProt Q15858); assay: Inhibition of human Nav1.7/beta1/2 transfected in HEK293-A cells assessed as inhibition of channel current incubated for 5.5 mins by high-throughput electrophysiology system analysis; format: cell-based
Chain of Sodium channel protein type 9 subunit alpha/beta-1/beta-2 (Homo sapiens, UniProt Q15858) (Q15858 whole entry): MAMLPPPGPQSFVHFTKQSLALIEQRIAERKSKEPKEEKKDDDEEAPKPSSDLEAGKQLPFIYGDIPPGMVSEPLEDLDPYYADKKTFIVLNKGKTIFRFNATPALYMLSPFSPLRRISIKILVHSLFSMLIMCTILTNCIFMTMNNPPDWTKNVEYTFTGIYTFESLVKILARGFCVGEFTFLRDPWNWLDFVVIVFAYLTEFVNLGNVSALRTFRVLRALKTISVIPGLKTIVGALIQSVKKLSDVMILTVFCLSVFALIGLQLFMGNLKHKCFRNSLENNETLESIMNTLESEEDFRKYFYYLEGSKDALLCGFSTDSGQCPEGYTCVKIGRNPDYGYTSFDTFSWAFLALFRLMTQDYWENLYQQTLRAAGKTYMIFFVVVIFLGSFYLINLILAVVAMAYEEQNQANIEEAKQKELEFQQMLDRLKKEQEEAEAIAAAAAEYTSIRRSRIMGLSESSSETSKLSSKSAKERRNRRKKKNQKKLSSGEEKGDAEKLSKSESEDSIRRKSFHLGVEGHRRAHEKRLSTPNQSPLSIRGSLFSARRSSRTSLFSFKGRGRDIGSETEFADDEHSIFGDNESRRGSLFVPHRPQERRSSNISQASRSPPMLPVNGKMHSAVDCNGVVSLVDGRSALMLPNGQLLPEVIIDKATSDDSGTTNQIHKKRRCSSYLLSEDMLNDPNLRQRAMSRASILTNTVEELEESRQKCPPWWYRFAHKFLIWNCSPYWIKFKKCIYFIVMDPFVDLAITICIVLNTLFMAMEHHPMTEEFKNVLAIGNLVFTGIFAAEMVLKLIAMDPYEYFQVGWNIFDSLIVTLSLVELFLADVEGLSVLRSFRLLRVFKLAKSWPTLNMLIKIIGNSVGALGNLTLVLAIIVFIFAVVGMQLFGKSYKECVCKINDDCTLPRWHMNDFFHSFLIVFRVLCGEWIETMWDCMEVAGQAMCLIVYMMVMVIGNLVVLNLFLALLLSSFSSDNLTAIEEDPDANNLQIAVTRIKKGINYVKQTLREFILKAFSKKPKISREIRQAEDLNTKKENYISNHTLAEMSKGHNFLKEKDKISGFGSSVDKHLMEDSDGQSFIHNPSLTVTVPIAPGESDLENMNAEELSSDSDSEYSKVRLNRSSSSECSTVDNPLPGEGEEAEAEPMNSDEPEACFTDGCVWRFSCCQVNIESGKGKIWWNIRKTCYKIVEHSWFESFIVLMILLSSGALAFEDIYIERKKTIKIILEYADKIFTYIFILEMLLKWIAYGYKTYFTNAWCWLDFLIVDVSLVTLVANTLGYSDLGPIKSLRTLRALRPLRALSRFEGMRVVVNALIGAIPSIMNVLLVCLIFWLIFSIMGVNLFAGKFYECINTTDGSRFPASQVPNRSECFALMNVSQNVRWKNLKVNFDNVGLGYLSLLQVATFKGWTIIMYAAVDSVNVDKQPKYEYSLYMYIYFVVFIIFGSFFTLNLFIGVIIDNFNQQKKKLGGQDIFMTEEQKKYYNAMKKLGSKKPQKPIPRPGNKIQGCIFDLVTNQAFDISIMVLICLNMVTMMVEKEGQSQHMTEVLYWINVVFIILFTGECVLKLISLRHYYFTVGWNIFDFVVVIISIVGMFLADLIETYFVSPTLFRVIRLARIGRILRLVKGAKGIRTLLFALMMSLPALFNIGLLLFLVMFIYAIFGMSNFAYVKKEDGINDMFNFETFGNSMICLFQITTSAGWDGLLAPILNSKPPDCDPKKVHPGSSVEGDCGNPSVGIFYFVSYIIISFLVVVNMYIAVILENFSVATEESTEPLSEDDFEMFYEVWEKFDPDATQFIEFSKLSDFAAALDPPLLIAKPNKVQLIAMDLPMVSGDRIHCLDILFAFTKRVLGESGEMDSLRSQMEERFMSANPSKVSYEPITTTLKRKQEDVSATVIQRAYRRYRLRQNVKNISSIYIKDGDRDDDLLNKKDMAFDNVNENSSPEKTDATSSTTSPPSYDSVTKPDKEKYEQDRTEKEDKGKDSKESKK
Chain of Sodium channel protein type 9 subunit alpha/beta-1/beta-2 (Homo sapiens, UniProt Q15858) (O60939 whole entry, further chain): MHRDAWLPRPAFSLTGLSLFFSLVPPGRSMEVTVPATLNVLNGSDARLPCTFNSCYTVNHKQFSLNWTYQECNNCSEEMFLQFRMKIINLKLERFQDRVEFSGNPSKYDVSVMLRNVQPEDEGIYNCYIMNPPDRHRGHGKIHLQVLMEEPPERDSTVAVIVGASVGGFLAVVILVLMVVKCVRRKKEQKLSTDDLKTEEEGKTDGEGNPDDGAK
Chain of Sodium channel protein type 9 subunit alpha/beta-1/beta-2 (Homo sapiens, UniProt Q15858) (Q07699 whole entry, further chain): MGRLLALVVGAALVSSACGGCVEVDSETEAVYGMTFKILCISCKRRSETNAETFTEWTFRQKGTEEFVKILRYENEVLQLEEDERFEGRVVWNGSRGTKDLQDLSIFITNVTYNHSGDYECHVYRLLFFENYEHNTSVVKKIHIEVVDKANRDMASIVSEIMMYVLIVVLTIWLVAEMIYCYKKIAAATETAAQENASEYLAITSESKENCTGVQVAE

[2] = biological target: Sodium channel protein type 9 subunit alpha/beta-1/beta-2 (Mus musculus, UniProt Q62205); assay: Inhibition of mouse Nav1.7/beta1/2 transfected in HEK293-A cells assessed as inhibition of channel current incubated for 5.5 mins by high-throughput electrophysiology system analysis; format: cell-based
[3] = Unbound fraction in mouse plasma; format: ADME, cell-free
[4] = biological target: Sodium channel protein type 1 subunit alpha/beta-1/beta-2 (Homo sapiens, UniProt P35498); assay: (§1) Inhibition of human Nav1.1/beta1/2 transfected in HEK293-A cells assessed as inhibition of channel current incubated for 5.5 mins by high-throughput electrophysiology system analysis; format: toxicity, cell-based
hERG (KCNH2) = hERG (KCNH2) (Homo sapiens, UniProt Q12809); assay: Inhibition of hERG at 100 uM; format: toxicity
[5] = Aqueous thermodynamic solubility of the compound at pH 6.8 measured after 4 hrs by HPLC-UV analysis; format: physicochemical; conditions: read-out: Therm_solubility
[6] = 1-Octanol/PBS buffer distribution coefficient, log D of the compound at pH 7.4 by HPLC/LC-MS analysis; format: physicochemical
[7] = biological target: Sodium channel protein type 5 subunit alpha/beta-1/beta-2 (Homo sapiens, UniProt Q14524); assay: (§2) Inhibition of human Nav1.5/beta1/2 transfected in HEK293-A cells assessed as inhibition of channel current incubated for 5.5 mins by high-throughput electrophysiology system analysis; format: toxicity, cell-based
Chain of Sodium channel protein type 5 subunit alpha/beta-1/beta-2 (Q14524 whole entry): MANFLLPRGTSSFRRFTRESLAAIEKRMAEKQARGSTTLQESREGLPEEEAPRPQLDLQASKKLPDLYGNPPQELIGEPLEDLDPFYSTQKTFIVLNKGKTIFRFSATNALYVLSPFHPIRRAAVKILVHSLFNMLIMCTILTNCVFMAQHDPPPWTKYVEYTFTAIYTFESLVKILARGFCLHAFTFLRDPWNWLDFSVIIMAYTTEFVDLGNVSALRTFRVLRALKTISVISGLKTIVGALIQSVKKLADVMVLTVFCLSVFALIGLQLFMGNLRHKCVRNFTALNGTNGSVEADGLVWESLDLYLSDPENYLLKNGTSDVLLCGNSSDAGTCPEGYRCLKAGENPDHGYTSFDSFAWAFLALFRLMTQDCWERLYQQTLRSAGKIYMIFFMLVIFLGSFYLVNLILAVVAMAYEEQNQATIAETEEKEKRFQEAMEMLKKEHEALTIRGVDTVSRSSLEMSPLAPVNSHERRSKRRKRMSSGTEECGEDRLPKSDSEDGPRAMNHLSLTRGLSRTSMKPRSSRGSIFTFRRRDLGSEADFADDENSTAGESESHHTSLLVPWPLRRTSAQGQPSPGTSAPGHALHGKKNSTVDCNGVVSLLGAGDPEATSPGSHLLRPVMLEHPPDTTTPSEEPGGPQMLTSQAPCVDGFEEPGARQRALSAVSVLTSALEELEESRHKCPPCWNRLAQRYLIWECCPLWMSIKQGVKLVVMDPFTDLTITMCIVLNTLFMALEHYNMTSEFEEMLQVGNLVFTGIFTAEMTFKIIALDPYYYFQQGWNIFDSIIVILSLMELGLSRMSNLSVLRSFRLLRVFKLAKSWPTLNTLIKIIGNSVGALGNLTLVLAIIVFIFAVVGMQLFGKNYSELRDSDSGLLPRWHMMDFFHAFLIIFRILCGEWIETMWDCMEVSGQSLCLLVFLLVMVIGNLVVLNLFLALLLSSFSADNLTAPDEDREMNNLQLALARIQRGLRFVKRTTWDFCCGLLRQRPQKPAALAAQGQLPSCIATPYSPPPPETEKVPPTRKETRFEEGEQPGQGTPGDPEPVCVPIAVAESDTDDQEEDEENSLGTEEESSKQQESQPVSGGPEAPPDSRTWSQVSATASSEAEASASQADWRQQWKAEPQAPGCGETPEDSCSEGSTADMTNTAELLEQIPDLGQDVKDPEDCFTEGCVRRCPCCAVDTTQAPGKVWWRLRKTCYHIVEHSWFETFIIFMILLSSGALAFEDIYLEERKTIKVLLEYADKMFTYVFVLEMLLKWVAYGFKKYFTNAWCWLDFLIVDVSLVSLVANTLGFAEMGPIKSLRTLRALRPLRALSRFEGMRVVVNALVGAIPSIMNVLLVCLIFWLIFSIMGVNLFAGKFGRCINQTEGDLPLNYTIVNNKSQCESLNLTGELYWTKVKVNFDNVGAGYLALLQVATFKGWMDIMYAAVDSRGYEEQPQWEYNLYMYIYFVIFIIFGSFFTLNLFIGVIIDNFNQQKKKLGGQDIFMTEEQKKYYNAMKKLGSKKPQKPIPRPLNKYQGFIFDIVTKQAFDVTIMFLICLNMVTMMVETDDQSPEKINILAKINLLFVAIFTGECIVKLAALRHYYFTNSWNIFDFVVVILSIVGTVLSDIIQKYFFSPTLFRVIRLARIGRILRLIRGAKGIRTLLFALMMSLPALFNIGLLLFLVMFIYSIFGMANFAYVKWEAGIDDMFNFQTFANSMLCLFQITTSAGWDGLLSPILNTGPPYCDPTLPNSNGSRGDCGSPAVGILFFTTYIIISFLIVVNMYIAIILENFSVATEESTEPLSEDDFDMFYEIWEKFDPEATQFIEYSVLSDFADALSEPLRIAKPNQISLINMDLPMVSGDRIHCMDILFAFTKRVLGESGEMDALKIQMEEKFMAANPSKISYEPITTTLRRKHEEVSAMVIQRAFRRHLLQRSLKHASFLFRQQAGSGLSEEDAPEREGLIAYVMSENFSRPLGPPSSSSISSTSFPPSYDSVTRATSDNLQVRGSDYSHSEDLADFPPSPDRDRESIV
Chain of Sodium channel protein type 5 subunit alpha/beta-1/beta-2 (O60939 whole entry, further chain): as the sequence (O60939 whole entry, further chain) above
Chain of Sodium channel protein type 5 subunit alpha/beta-1/beta-2 (Q07699 whole entry, further chain): as the sequence (Q07699 whole entry, further chain) above

[8] = biological target: Nav1.1/beta1/beta2 sodium channel (Homo sapiens, UniProt P35498); assay: as §1; format: toxicity, cell-based; conditions: human, HEK293-A cells transfected with human Nav1.1/beta1/2
[9] = Selectivity ratio of IC50 for human Nav1.1/beta1/2 transfected in HEK293-A cells to IC50 for human Nav1.7/beta1/2 transfected in HEK293-A cells
[10] = Selectivity ratio of IC50 for mouse Nav1.7/beta1/2 transfected in HEK293-A cells to IC50 for human Nav1.7/beta1/2 transfected in HEK293-A cells; format: cell-based
[11] = Selectivity ratio of IC50 for human Nav1.5/beta1/2 transfected in HEK293-A cells to IC50 for human Nav1.7/beta1/2 transfected in HEK293-A cells
Mus musculus [12] = assay: Analgesic activity against PSL-induced neuropathic pain mouse model assessed as reversal of thermal hyperalgesia at 3 mg/kg, po by plantar test; format: functional, organism-based
[13] = Ratio of fCmax in ddY mouse plasma at 1 mg/kg, po to IC50 for inhibition of mouse Nav1.7/beta1/2 transfected in HEK293-A cells
[14] = Half life in ddY mouse at 1 mg/kg, po by LC-MS/MS analysis; format: ADME, organism-based; conditions: in vivo
[15] = Volume of distribution at steady state in ddY mouse at 1 mg/kg, iv by LC-MS/MS analysis; format: ADME, organism-based; conditions: in vivo, read-out: Vdss
[16] = AUC(0 to 24 hrs) in ddY mouse at 1 mg/kg, po by LC-MS/MS analysis; format: ADME, organism-based; set-up: dose 1 mg/kg, route po; conditions: in vivo
[17] = Cmax in ddY mouse at 1 mg/kg, po by LC-MS/MS analysis; format: ADME, organism-based; set-up: dose 1 mg/kg, route po; conditions: in vivo
Mus musculus [18] = assay: Analgesic activity against PSL-induced neuropathic pain mouse model assessed as reversal of thermal hyperalgesia at 1 mg/kg, po measured after 30 mins by plantar test; format: functional; conditions: 0.5 h
[19] = Tmax in ddY mouse at 1 mg/kg, po by LC-MS/MS analysis; format: ADME, organism-based; conditions: in vivo
[20] = Total body clearance in ddY mouse at 1 mg/kg, iv by LC-MS/MS analysis; format: ADME, organism-based; conditions: in vivo
[21] = Bioavailability in ddY mouse at 1 mg/kg, iv by LC-MS/MS analysis; format: ADME, organism-based; conditions: in vivo
Mus musculus [22] = assay: Analgesic activity against PSL-induced neuropathic pain mouse model assessed as reversal of thermal hyperalgesia at 1 mg/kg, po measured after 60 mins by plantar test; format: functional, organism-based
Mus musculus [23] = assay: Analgesic activity against PSL-induced neuropathic pain mouse model assessed as reversal of thermal hyperalgesia at 1 mg/kg, po measured after 180 mins by plantar test; format: functional, organism-based
[24] = biological target: Nav1.5/beta1/beta2 sodium channel (Homo sapiens, UniProt Q14524); assay: as §2; format: toxicity, cell-based; conditions: human, HEK293-A cells transfected with human Nav1.5/beta1/2

| pIC50 [1] | pIC50 [2] | fraction unbound [3] | solubility thermodynamic at 4 h [5] | logD [6] | Compound | pIC50 [4] | inhibition at 100 µM (hERG (KCNH2)) | pIC50 [7] | further results |
| --- | --- | --- | --- | --- | --- | --- | --- | --- | --- |
| < 5.00 | < 5.00 | – | – | – | CS(=O)(=O)NC(=O)c1ccc2c(ccn2Cc2ccccc2)c1 | – | – | – | – |
| 7.85 | 6.01 | < 0.002 | 430 µM (≈ 157 µg/mL) | 0.8 | Cc1cn(-c2cccc(F)c2)c2cc(F)c(C(=O)NS(C)(=O)=O)cc12 | < 4.00 | 15.6% | 4.51 | – |
| 9.22 | – | – | – | – | C[C@@H](c1cc(Cl)cc(Cl)c1)N1CCC(COc2cc(F)c(C(=O)NS(C)(=O)=O)cc2C2CC2)CC1 | – | – | 6.26 | IC50 at 5.5 min [8]: 0.202 µM |
| 7.72 | 7.80 | 0.004 | 230 µM (≈ 95.3 µg/mL) | 1.5 | Cc1cn(-c2cccc(C(F)(F)F)c2)c2cc(F)c(C(=O)NS(C)(=O)=O)cc12 | < 4.00 | 54.8% | 4.85 | Ratio IC50 [9]: 5000; Activity (Mus musculus [12]): Active; Ratio IC50 [11]: 740 |
| 5.80 | < 5.00 | – | – | – | Cc1cn(-c2cccnc2)c2ccc(C(=O)NS(=O)(=O)C3CC3)cc12 | < 4.00 | -8.8% | < 3.52 | – |
| 7.07 | 6.34 | – | 35 µM (≈ 13.6 µg/mL) | 0.8 | Cc1cn(-c2cncc(Cl)c2)c2ccc(C(=O)NS(=O)(=O)C3CC3)cc12 | 5.00 | 34.1% | 3.97 | – |
| < 5.00 | < 5.00 | – | – | – | CS(=O)(=O)NC(=O)c1ccc2[nH]cc(-c3ccccc3)c2c1 | – | – | – | – |
| < 5.00 | – | – | – | – | Cc1cn(-c2cccnc2)c2ccc(C(=O)NS(C)(=O)=O)cc12 | – | -0.1% | < 3.52 | – |
| 7.23 | 5.80 | 0.014 | 29 µM (≈ 12.3 µg/mL) | 1 | Cc1cn(-c2ccc(C(F)(F)F)nc2)c2ccc(C(=O)NS(=O)(=O)C3CC3)cc12 | < 4.00 | 21% | 3.68 | – |
| 5.23 | 4.92 | – | – | – | Cc1cn(-c2ccccc2F)c2ccc(C(=O)NS(C)(=O)=O)cc12 | – | – | 4.00 | – |
| < 5.00 | < 5.00 | – | – | – | CS(=O)(=O)NC(=O)c1ccc2c(ccn2-c2ccccc2)c1 | – | – | – | – |
| 6.72 | 5.55 | < 0.002 | 140 µM (≈ 48.5 µg/mL) | 1.1 | Cc1cn(-c2ccc(F)cc2)c2ccc(C(=O)NS(C)(=O)=O)cc12 | 4.28 | 5.6% | 4.38 | – |
| 7.06 | 5.77 | < 0.002 | 620 µM (≈ 225 µg/mL) | 1.8 | Cc1cn(-c2cccc(Cl)c2)c2ccc(C(=O)NS(C)(=O)=O)cc12 | 4.70 | 43.5% | 4.47 | – |
| < 5.00 | < 5.00 | – | – | – | Cn1cc(-c2ccccc2)c2cc(C(=O)NS(C)(=O)=O)ccc21 | – | – | – | – |
| 6.59 | 5.10 | – | 26 µM (≈ 9.43 µg/mL) | 1.8 | Cc1cn(-c2ccc(Cl)cc2)c2ccc(C(=O)NS(C)(=O)=O)cc12 | < 4.00 | 51.1% | 4.64 | – |

More lines, now with the values behind:

| Compound | pIC50 [1] | pIC50 [2] | fraction unbound [3] | solubility thermodynamic at 4 h [5] | logD [6] | pIC50 [4] | inhibition at 100 µM (hERG (KCNH2)) | pIC50 [7] | further results |
| --- | --- | --- | --- | --- | --- | --- | --- | --- | --- |
| COc1cccc(-n2cc(C)c3cc(C(=O)NS(C)(=O)=O)ccc32)c1 | 6.72 | 5.68 | < 0.002 | 580 µM (≈ 208 µg/mL) | 1.2 | 4.10 | 18.9% | 4.15 | – |
| Cc1cn(-c2ccccc2)c2ccc(C(=O)NS(C)(=O)=O)cc12 | 6.48 | 5.57 | < 0.002 | > 660 µM | 1.1 | 4.10 | 17.1% | 4.10 | Ratio IC50 [9]: 240; Ratio IC50 [10]: 10; Ratio IC50 [11]: 240 |
| Cc1cn(-c2cccc(F)c2)c2ccc(C(=O)NS(=O)(=O)C3CC3)cc12 | 7.49 | 6.09 | < 0.002 | 440 µM (≈ 164 µg/mL) | 1.8 | 5.32 | 42.1% | 4.85 | Ratio [13]: <0.0042; half-life [14]: 5 h; Vd [15]: 0.57 L/kg; AUC(0-t) [16]: 12.1 µM·h; Cmax [17]: 1700 nM; Efficacy (Mus musculus [18]): 79%; Tmax [19]: 1 h; clearance [20]: 2.58 mL/min/kg; bioavailability [21]: 65% |
| Cc1cccc(-n2cc(C)c3cc(C(=O)NS(C)(=O)=O)ccc32)c1 | 7.24 | 5.80 | – | 550 µM (≈ 188 µg/mL) | 1.6 | 4.41 | 51% | – | – |
| Cc1cn(-c2cncc(F)c2)c2ccc(C(=O)NS(=O)(=O)C3CC3)cc12 | 6.07 | 5.57 | – | – | – | < 4.00 | -1.1% | < 3.52 | – |
| Cc1cn(-c2cncc(C(F)(F)F)c2)c2cc(F)c(C(=O)NS(=O)(=O)C3CC3)cc12 | 7.40 | 7.82 | 0.007 | 25 µM (≈ 11 µg/mL) | 0.6 | 5.92 | -2.9% | 4.49 | Ratio [13]: 0.65; Ratio IC50 [9]: 30; half-life [14]: 13.5 h; Activity (Mus musculus [22]): Active; AUC(0-t) [16]: 23.6 µM·h; Cmax [17]: 1400 nM; Activity (Mus musculus [23]): inactive; Efficacy (Mus musculus [18]): 64%; Tmax [19]: 6 h |
| Cc1cn(-c2cccc(F)c2)c2ccc(C(=O)NS(C)(=O)=O)cc12 | 7.42 | 6.05 | < 0.002 | 600 µM (≈ 208 µg/mL) | 1.2 | 4.92 | 13.2% | 4.46 | – |
| Cc1cn(-c2cccc(C(F)(F)F)c2)c2ccc(C(=O)NS(C)(=O)=O)cc12 | 7.47 | 6.17 | 0.002 | > 820 µM | 1.7 | 4.70 | 49.8% | 4.57 | – |
| CS(=O)(=O)NC(=O)c1cc(Cl)c(Oc2cnc(C3CC3)c(Cl)c2)cc1F | 7.28 | 5.77 | – | – | – | 4.66 | – | 4.54 | – |
| O=C(NS(=O)(=O)N1CCC1)c1cc(C2CC2)c(OCC23CC4CC(CC(C4)C2)C3)cc1F | – | – | – | – | – | – | – | – | IC50 at 5.5 min [24]: 0.051 µM |
